According to patent US7563781B2, “Triazolopyrimidine derivatives” (Janssen Pharmaceutica NV, priority 2006, dated 2009):
Where two headings read alike, the source gives them in different places.

Columns and labels:
[1] = molecular target: T1, Focal Adhesion Kinase (full-length Flag-tagged human FAK) (Homo sapiens, UniProt Q05397); assay: in vitro FAK ELISA kinase assay; type: biochemical; settings: read-out: FAK % Inhib ave: 10 uM
T1 construct: a purified recombinant full-length Flag-tagged human FAK protein; Flag; made in house; host or cells: baculovirus infected insect cells
T1 sequence (Q05397 whole entry): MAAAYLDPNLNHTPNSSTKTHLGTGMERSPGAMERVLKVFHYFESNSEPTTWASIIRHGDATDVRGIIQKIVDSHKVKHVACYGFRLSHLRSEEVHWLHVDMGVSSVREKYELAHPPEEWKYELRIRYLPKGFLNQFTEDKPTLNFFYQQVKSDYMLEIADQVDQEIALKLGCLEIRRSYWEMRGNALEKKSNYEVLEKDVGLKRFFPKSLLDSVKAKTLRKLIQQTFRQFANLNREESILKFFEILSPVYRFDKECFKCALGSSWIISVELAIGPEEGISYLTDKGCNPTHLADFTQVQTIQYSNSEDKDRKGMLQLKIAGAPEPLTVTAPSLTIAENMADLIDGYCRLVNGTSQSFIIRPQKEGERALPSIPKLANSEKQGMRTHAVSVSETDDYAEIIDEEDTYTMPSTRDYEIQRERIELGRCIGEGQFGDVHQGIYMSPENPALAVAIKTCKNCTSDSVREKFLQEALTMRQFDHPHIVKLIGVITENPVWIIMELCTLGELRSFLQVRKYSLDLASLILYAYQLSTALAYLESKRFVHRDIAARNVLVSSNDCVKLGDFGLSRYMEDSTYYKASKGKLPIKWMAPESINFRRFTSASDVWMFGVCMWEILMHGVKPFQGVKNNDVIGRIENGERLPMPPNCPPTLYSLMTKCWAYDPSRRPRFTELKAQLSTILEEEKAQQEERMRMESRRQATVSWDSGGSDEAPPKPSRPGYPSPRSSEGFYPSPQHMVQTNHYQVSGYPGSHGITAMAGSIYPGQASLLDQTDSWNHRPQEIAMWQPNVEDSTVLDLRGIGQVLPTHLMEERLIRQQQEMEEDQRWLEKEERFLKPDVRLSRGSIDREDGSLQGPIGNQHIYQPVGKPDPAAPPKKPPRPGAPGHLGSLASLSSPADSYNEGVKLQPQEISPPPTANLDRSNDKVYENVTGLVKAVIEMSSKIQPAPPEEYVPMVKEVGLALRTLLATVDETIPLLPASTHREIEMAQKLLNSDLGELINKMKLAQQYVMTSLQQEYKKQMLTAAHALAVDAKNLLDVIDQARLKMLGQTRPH
In short: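 Plate-coated GST fusion of the 73-residue region around Tyr397 phosphorylated by full-length Flag-tagged human FAK from baculovirus-infected insect cells, with 2 μM ATP in Mg/Mn HEPES pH 7.5, 1 h at 30 °C. Phosphotyrosine detected by HRP-anti-pTyr ELISA with TMB read-out. Compounds screened at 10 μM or titrated from 50 μM in half-log steps for IC50, BSA-substrate background subtracted.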

[2] = molecular target: T2, CAK complex (human Cdk7, human Cyclin H, MAT-1) (Homo sapiens, UniProt P50613); assay: in vitro time-resolved-fluorescence assay for the CAK kinase activity; type: biochemical; settings: compound 20 uM; read-out: CAK % inhib; 20 uM
T2 construct: made in house; host or cells: SF-900 insect cells co-infected with Flag-Cdk7 and Bab-Cyclin H baculoviruses
T2 sequence (P50613 with tags, fused parts or gaps): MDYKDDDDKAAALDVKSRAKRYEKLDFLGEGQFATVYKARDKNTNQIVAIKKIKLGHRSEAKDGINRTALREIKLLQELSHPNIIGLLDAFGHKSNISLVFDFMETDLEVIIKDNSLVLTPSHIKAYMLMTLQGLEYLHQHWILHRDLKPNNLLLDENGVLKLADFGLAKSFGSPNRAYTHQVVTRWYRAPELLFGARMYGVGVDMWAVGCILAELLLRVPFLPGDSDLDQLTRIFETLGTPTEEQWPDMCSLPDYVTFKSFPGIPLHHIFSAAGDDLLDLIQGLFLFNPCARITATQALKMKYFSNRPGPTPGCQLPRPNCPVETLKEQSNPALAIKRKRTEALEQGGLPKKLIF
T2 sequence (as listed by the source partner): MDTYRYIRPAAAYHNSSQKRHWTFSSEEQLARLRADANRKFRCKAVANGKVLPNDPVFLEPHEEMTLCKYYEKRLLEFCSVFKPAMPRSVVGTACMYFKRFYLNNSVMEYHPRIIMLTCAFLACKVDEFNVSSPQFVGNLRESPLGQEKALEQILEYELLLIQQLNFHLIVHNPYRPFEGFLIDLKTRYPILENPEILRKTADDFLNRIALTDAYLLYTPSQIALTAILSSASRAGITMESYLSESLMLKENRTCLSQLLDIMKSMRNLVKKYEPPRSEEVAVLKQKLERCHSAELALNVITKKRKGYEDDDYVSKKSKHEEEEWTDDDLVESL
Text: Cyclin Dependent Kinase Activating Kinase (CAK) is a complex of proteins that phosphorylates a well-conserved threonine (Thr) residue in all mammalian cyclin dependent kinases (cdks). The CAK complex can also phosphorylate several components of the transcriptional machinery, such as the C-terminal domain (CTD) of RNA polymerase II in the TFIIH transcription complex. The CAK complex localizes to the nucleus, and is composed of three proteins: Cdk7, Cyclin H, and MAT-1. The exemplified method teaches the cloning and expression CAK subunits, particularly a human Cdk7 and a human Cyclin H. The method of the present invention exemplified herein is equally applicable to the cloning and expression of any CAK subunit, such as variants, structural or functional polymorphisms of the human Cdk7 or the human Cyclin H, or their orthologs in other animals such as rat, mouse, pig, dog and monkey.
The CAK complex was purified from co-infected SF-900 insect cells at 48 hours post infection by batch immunoaffinity purification. The infected cells were pelleted by centrifugation and lysed in 1/10 of the culture volume in a solution containing 50 mM Hepes pH 7.5, 10 mM MgCl2, 1 mM DTT, 10 mM Beta-Glycerol phosphate, 20 uM Na-oVO4, 0.2 mM PMSF and 1 μg/mL each of leupeptin, aprotinin, and pepstatin on ice. Cells were mechanically lysed by trituration through a 22-gauge needle followed by sonication or alternately by nitrogen cavitation. The lysed cells were centrifuged at 50,000×G for 1 hour at 4° C. to remove debris and the supernatant was applied to 1/10 volume of prewashed Flag-M2 immunoaffinity resin (Sigma). The CAK complex, by nature of the Flag tagged Cdk7 protein, was allowed to bind to the Flag antibody of the resin overnight at 4° C. with gentle rocking. The resin was washed 4 times with 5 resin volumes of lysis buffer and the bound proteins were eluted by competition with 0.5 mg/mL Flag peptide ([…], American Peptide Co, Inc., SEQ ID NO: 16) in a total of 2 resin volumes. To remove the Flag peptide, the eluted material was applied to PD-10 gel filtration columns (Pharmacia) under conditions recommended by the manufacturer.
Measurement of CAK kinase activity was accomplished using an antibody methodology in which a Europium labeled antibody binds preferentially to serine phosphorylated GST-CTD substrate. The long-lived europium label fluorescence allows a greater signal-to-noise ratio due to the delay in reading the emission wavelength, thereby eliminating signals from immediate fluorescence and fluorescent pharmaceutical screening compounds.
The time-resolved-fluorescence assay for the CAK kinase activity is performed as follows. In a well of a black glutathione coated 96 well micro titer plate (Pierce Chemical, No. 15360), the following reagents were added: 1) 25 ul substrate solution containing 500 ng purified GST-CTD in a buffer having 50 mM Hepes pH 7.5, 10 mM MgCl2, 1 mM DTT, 0.2 mM PMSF, 40 uM Na-oVO4, and 22 uM ATP (as a background control, the buffer, including ATP but not substrate was added); 2) 2.5 ul of screening compounds in a diluent containing 30% DMSO/25 mM Hepes pH7.5 (As a control, the diluent only was added. Typically the final concentration of compound is 1 uM); and 3) 250 ng CAK enzyme complex in enzyme buffer containing 25 ul of 50 mM Hepes pH 7.5, 10 mM MgCl2, 1 mM DTT, 0.2 mM PMSF, and 40 uM Na-oVO4. The micro titer plate was shaken for 2 minutes on a titer plate shaker and allowed to incubate at 30° C. for 20 minutes.
Subsequently, Kinase Stop Solution (75 mM EDTA, 0.2 mM PMSF, 1 mM DTT, 120 uM Na oVO4 in PBS) was added (50 ul/well). The plate was shaken for 2 minutes and incubated overnight at room temperature to allow substrate binding to the wells. The plate contents were flicked out, and the wells of the plate were washed 4 times with 350 ul of wash buffer (Delphia wash buffer, Perkin-Elmer, Inc.). The plate was tapped dry. […]

Structure (SMILES)	inhibition at 10 µM ([1]; compound 10 uM, ATP 2 uM)	inhibition at 20 µM [2]	inhibition at 10 µM [1]
COc1cc(-n2nnc3cnc(Nc4cccc(S(N)(=O)=O)c4)nc32)cc(OC)c1OC [Compound 44, 3-[3-(3,4,5-Trimethoxy-phenyl)-3H-[1,2,3]triazolo[4,5-d]pyrimidin-5-ylamino]-benzene-sulfonamide]	24.7%	10.2%	
O=C(NCCCN1CCCC1)c1ccc(Nc2ncc3nnn(-c4ccc5c(c4)CCC5)c3n2)cc1 [Compound 75, 4-(3-Indan-5-yl-3H-[1,2,3]triazolo[4,5-d]pyrimidin-5-ylamino)-N-(3-pyrrolidin-1-yl-propyl)-benzamide]	77.9%	84%	
CN(C)CC(O)COc1ccc(Nc2ncc3nnn(-c4ccc5c(c4)Cc4ccccc4-5)c3n2)cc1 (stereo not drawn) [Compound 17, 1-Dimethylamino-3-{4-[3-(9H-fluoren-2-yl)-3H-[1,2,3]triazolo[4,5-d]pyrimidin-5-ylamino]-phenoxy}-propan-2-ol]	86.8%	53.8%	
CN(CCCOc1ccc(Nc2ncc3nnn(-c4ccc5c(c4)CCC5)c3n2)cc1)Cc1ccccc1 [Compound 90, {4-[3-(Benzyl-methyl-amino)-propoxy]-phenyl}-(3-indan-5-yl-3H-[1,2,3]triazolo[4,5-d]pyrimidin-5-yl)-amine]	31.7%	47.5%	
CN(C)CC(O)COc1ccc(Nc2ncc3nnn(C4CCCCC4)c3n2)cc1 (stereo not drawn) [Compound 9, 1-[4-(3-Cyclohexyl-3H-[1,2,3]triazolo[4,5-d]pyrimidin-5-ylamino)-phenoxy]-3-dimethylamino-propan-2-ol]	23%	85.9%	
CN(C)CC(O)COc1ccc(Nc2ncc3nnn(-c4ccc(C5CCCCC5)cc4)c3n2)cc1 (stereo not drawn) [Compound 15, 1-{4-[3-(4-Cyclohexyl-phenyl)-3H-[1,2,3]triazolo[4,5-d]pyrimidin-5-ylamino]-phenoxy}-3-dimethylamino-propan-2-ol]	80.5%	76%	
CCOC(=O)N1CCC(n2nnc3cnc(Nc4cccc(-c5nnn[nH]5)c4)nc32)CC1 [Compound 63, 4-{5-[3-(1H-Tetrazol-5-yl)-phenylamino]-[1,2,3]triazolo[4,5-d]pyrimidin-3-yl}-piperidine-1-carboxylic acid ethyl ester]	59.8%	39.3%	
CN(Cc1ccccc1Nc1ncc2nnn(-c3ccc4c(c3)CCC4)c2n1)C1CCCCC1 [Compound 18, {2-[(Cyclohexyl-methyl-amino)-methyl]-phenyl}-(3-indan-5-yl-3H-[1,2,3]triazolo[4,5-d]pyrimidin-5-yl)-amine]	12.2%	20.7%	
CCCCNS(=O)(=O)c1cccc(-n2nnc3cnc(Nc4ccc(N5CCN(Cc6ccccc6)CC5)cc4)nc32)c1 [Compound 50, 3-{5-[4-(4-Benzyl-piperazin-1-yl)-phenylamino]-[1,2,3]triazolo[4,5-d]pyrimidin-3-yl]-N-butyl-benzene-sulfonamide]	48.4%	31.7%	
CN(C)CC(O)COc1ccc(Nc2ncc3nnn(C4CCC(C(=O)O)CC4)c3n2)cc1 (stereo not drawn) [Compound 30, 4-{5-[4-(3-Dimethylamino-2-hydroxy-propoxy)-phenylamino]-[1,2,3]triazolo[4,5-d]pyrimidin-3-yl}-cyclohexane-carboxylic acid]	30%	38.6%	
CN(C)CC(O)COc1ccc(Nc2ncc3nnn(-c4cccc(C#N)c4)c3n2)cc1 (stereo not drawn) [Compound 10, 3-{5-[4-(3-Dimethylamino-2-hydroxy-propoxy)-phenylamino]-[1,2,3]triazolo[4,5-d]pyrimidin-3-yl]-benzonitrile]	64.7%	11.5%	
CN(C)CC(O)COc1ccc(Nc2ncc3nnn(-c4ccc(F)c(F)c4)c3n2)cc1 (stereo not drawn) [Compound 11, 1-{4-[3-(3,4-Difluoro-phenyl)-3H-[1,2,3]triazolo[4,5-d]pyrimidin-5-ylamino]-phenoxy}-3-dimethylamino-propan-2-ol]	65.3%	56%	
CCN(CC)CCNC(=O)c1ccc(Nc2ncc3nnn(C4CCc5ccccc54)c3n2)cc1 (stereo not drawn) [Compound 61, N-(2-Diethylamino-ethyl)-4-(3-indan-1-yl-3H-[1,2,3]triazolo[4,5-d]pyrimidin-5-ylamino)-benzamide]	85.5%	79.4%	
O=C(NCCN1CCOCC1)c1cccc(Nc2ncc3nnn(-c4ccc5c(c4)CCC5)c3n2)c1 [Compound 73, 3-(3-Indan-5-yl-3H-[1,2,3]triazolo[4,5-d]pyrimidin-5-ylamino)-N-(2-morpholin-4-yl-ethyl)-benzamide]	31.2%	47.5%	
OC1CCN(CCCOc2ccc(Nc3ncc4nnn(-c5ccc6c(c5)CCC6)c4n3)cc2)C1 (stereo not drawn) [Compound 93, 1-{3-[4-(3-Indan-5-yl-3H-[1,2,3]triazolo[4,5-d]pyrimidin-5-ylamino)-phenoxy]-propyl}-pyrrolidin-3-ol]	90.8%	101%	
NS(=O)(=O)c1ccccc1Nc1ncc2nnn(-c3ccccc3S(N)(=O)=O)c2n1 [Compound 46]	29.2%	44.9%	
CNC(=O)c1cccc(Nc2ncc3nnn(-c4ccc5c(c4)CCC5)c3n2)c1 [Compound 27, 3-(3-Indan-5-yl-3H-[1,2,3]triazolo[4,5-d]pyrimidin-5-ylamino)-N-methyl-benzamide]	74.4%	21.4%	
CCCCCOc1ccc(Nc2ncc3nnn(-c4ccc5c(c4)CCC5)c3n2)cc1 [Compound 5, (3-Indan-5-yl-3H-[1,2,3]triazolo[4,5-d]pyrimidin-5-yl)-(4-pentyloxy-phenyl)-amine]	12.4%	25.9%	
CCN(CC)CCNC(=O)c1ccc(Nc2ncc3nnn(-c4ccc5c(c4)CCC5)c3n2)cc1 [Compound 22, N-(2-Diethylamino-ethyl)-4-(3-indan-5-yl-3H-[1,2,3]triazolo[4,5-d]pyrimidin-5-ylamino)-benzamide]	98.9%	96.9%	
CCN(CC)CCNC(=O)c1ccc(Nc2ncc3nnn(Cc4ccccc4)c3n2)cc1 [Compound 58, 4-(3-Benzyl-3H-[1,2,3]triazolo[4,5-d]pyrimidin-5-ylamino)-N-(2-diethylamino-ethyl)-benzamide]	59%	58%	
CCOP(=O)(Cc1ccc(Nc2ncc3nnn(-c4ccc5c(c4)CCC5)c3n2)cc1)OCC [Compound 24, [4-(3-Indan-5-yl-3H-[1,2,3]triazolo[4,5-d]pyrimidin-5-ylamino)-benzyl]-phosphonic acid diethyl ester]		24.7%	34%
